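Growth conditions: 96-well plates. Treatment: test compound, 48 hours, 5 concentrations. Analysis: linear interpolation between bracketing concentrations; unreached endpoints set to highest concentration. GI50 = concentration required for 50% inhibition of growth. TGI marks complete inhibition of growth.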
Key:
Test in all cases: growth of human tumour cells (NCI), 48 h
SF-268 CNS = test system: SF-268 CNS
K-562 leukemia = test system: K-562 leukemia
NCI/ADR-RES ovarian = test system: NCI/ADR-RES ovarian
NCI-H522 lung = test system: NCI-H522 lung
UACC-257 melanoma = test system: UACC-257 melanoma
ACHN renal = test system: ACHN renal
SNB-19 CNS = test system: SNB-19 CNS
DU-145 prostate = test system: DU-145 prostate
HCT-15 colon = test system: HCT-15 colon
SF-295 CNS = test system: SF-295 CNS
NCI-H23 lung = test system: NCI-H23 lung
HL-60(TB) leukemia = test system: HL-60(TB) leukemia
BT-549 breast = test system: BT-549 breast
OVCAR-5 ovarian = test system: OVCAR-5 ovarian
HCT-116 colon = test system: HCT-116 colon
786-0 renal = test system: 786-0 renal
OVCAR-4 ovarian = test system: OVCAR-4 ovarian
A498 renal = test system: A498 renal
NCI-H460 lung = test system: NCI-H460 lung
HT29 colon = test system: HT29 colon
SK-OV-3 ovarian = test system: SK-OV-3 ovarian
TK-10 renal = test system: TK-10 renal
PC-3 prostate = test system: PC-3 prostate
COLO 205 colon = test system: COLO 205 colon
SNB-75 CNS = test system: SNB-75 CNS
U251 CNS = test system: U251 CNS
MDA-MB-435 = test system: MDA-MB-435
MDA-MB-231 breast = test system: MDA-MB-231 breast
HOP-92 NSCLC = test system: HOP-92 NSCLC
HCC-2998 colon = test system: HCC-2998 colon
SN12C renal = test system: SN12C renal
T-47D breast = test system: T-47D breast
KM12 colon = test system: KM12 colon
OVCAR-8 ovarian = test system: OVCAR-8 ovarian
SK-MEL-28 melanoma = test system: SK-MEL-28 melanoma
EKVX NSCLC = test system: EKVX NSCLC
CAKI-1 renal = test system: CAKI-1 renal
RXF 393 renal = test system: RXF 393 renal
MALME-3M melanoma = test system: MALME-3M melanoma
MOLT-4 leukemia = test system: MOLT-4 leukemia
SK-MEL-5 melanoma = test system: SK-MEL-5 melanoma
HS 578T breast = test system: HS 578T breast
SW-620 colon = test system: SW-620 colon
SK-MEL-2 melanoma = test system: SK-MEL-2 melanoma
A549 NSCLC = test system: A549 NSCLC
MCF7 breast = test system: MCF7 breast
UACC-62 melanoma = test system: UACC-62 melanoma
SF-539 CNS = test system: SF-539 CNS
LOX IMVI melanoma = test system: LOX IMVI melanoma
HOP-62 NSCLC = test system: HOP-62 NSCLC
RPMI-8226 leukemia = test system: RPMI-8226 leukemia
UO-31 renal = test system: UO-31 renal

## N#C/C(=C\c1ccc(O)c(O)c1)C(=O)NCc1cccc(C(F)(F)F)c1
SF-268 CNS
  GI50: 13.7 µM
  TGI: 42.1 µM
K-562 leukemia
  GI50: 21.3 µM
  TGI: > 100 µM
NCI/ADR-RES ovarian
  GI50: 10.1 µM
  TGI: 34.6 µM
NCI-H522 lung
  GI50: 7.71 µM
  TGI: 63.2 µM
UACC-257 melanoma
  GI50: 12.2 µM
  TGI: 52.5 µM
ACHN renal
  GI50: 5.53 µM
  TGI: 35.2 µM
SNB-19 CNS
  GI50: 19.4 µM
  TGI: > 100 µM
DU-145 prostate
  GI50: 12.1 µM
  TGI: 50.9 µM
HCT-15 colon
  GI50: 3.64 µM
  TGI: 46.3 µM
SF-295 CNS
  GI50: 1970 nM
  TGI: 15.7 µM
NCI-H23 lung
  GI50: 12.2 µM
  TGI: 31.5 µM
HL-60(TB) leukemia
  GI50: 4.73 µM
  TGI: 92.3 µM
BT-549 breast
  GI50: 5.99 µM
  TGI: 34.4 µM
OVCAR-5 ovarian
  GI50: 19.6 µM
  TGI: 55 µM
HCT-116 colon
  GI50: 3.79 µM
  TGI: 17.4 µM
786-0 renal
  GI50: 19 µM
  TGI: 45.5 µM
OVCAR-4 ovarian
  GI50: 15.1 µM
  TGI: 74.4 µM
A498 renal
  GI50: 10.4 µM
  TGI: 26.9 µM
NCI-H460 lung
  GI50: 6.14 µM
  TGI: 31 µM
HT29 colon
  GI50: 22 µM
  TGI: 56.3 µM
SK-OV-3 ovarian
  GI50: 24.1 µM
  TGI: 75.6 µM
TK-10 renal
  GI50: 1310 nM
  TGI: 6.43 µM
PC-3 prostate
  GI50: 19.7 µM
  TGI: > 100 µM
COLO 205 colon
  GI50: 24.4 µM
  TGI: 76.6 µM
SNB-75 CNS
  GI50: 13.6 µM
  TGI: 59.2 µM
U251 CNS
  GI50: 6.22 µM
  TGI: 38.4 µM
MDA-MB-435
  GI50: 4.28 µM
  TGI: 18 µM
MDA-MB-231 breast
  GI50: 5.82 µM
  TGI: 29 µM
HOP-92 NSCLC
  GI50: 3.2 µM
  TGI: 26.8 µM
HCC-2998 colon
  GI50: 10.3 µM
  TGI: 22.2 µM
SN12C renal
  GI50: 11.3 µM
  TGI: 31.1 µM
T-47D breast
  GI50: 13.3 µM
  TGI: 84.5 µM
KM12 colon
  GI50: 4.04 µM
  TGI: 19.6 µM
OVCAR-8 ovarian
  GI50: 10.2 µM
  TGI: 62.2 µM
SK-MEL-28 melanoma
  GI50: 21.6 µM
  TGI: 72.6 µM
EKVX NSCLC
  GI50: 13.7 µM
  TGI: 39.8 µM
CAKI-1 renal
  GI50: 2050 nM
  TGI: 7.39 µM
RXF 393 renal
  GI50: 17.3 µM
  TGI: 84.5 µM
MALME-3M melanoma
  GI50: 2030 nM
  TGI: 25.2 µM
MOLT-4 leukemia
  GI50: 5.65 µM
  TGI: 41.2 µM
SK-MEL-5 melanoma
  GI50: 5.29 µM
  TGI: 19.3 µM
HS 578T breast
  GI50: 12 µM
  TGI: 47.3 µM
SW-620 colon
  GI50: 9.33 µM
  TGI: 31.3 µM
SK-MEL-2 melanoma
  GI50: 115 nM
  TGI: 2980 nM
A549 NSCLC
  GI50: 15.1 µM
  TGI: 90 µM
MCF7 breast
  GI50: 19.8 µM
  TGI: > 100 µM
UACC-62 melanoma
  GI50: 10.2 µM
  TGI: 23.8 µM
SF-539 CNS
  GI50: 3.51 µM
  TGI: 17 µM
LOX IMVI melanoma
  GI50: 11.4 µM
  TGI: 26.4 µM
HOP-62 NSCLC
  GI50: 13.4 µM
  TGI: 42.2 µM
RPMI-8226 leukemia
  GI50: 10.2 µM
  TGI: > 100 µM
UO-31 renal
  GI50: 11.8 µM
  TGI: 73.9 µM

Reference: PubChem BioAssay (NCI)
